Assay results taken from ChEMBL document CHEMBL4665869, “New thiazolopyrimidine as anticancer agents: Synthesis, biological evaluation, DNA binding, molecular modeling and ADMET study” (Bioorg Med Chem Lett, 2020).
Values after ≈ are worked out from the molar mass of the structure shown.

Experiments:
LOX IMVI = assay: Growth inhibition of human LOX IMVI cells at 10 uM relative to control; assay type: functional; conditions: read-out: GI
MDA-MB-468 = assay: Growth inhibition of human MDA-MB-468 cells at 10 uM relative to control; assay type: functional; conditions: read-out: GI
T47D = assay: Growth inhibition of human T47D cells at 10 uM relative to control; assay type: functional; conditions: read-out: GI
CCRF-CEM = assay: Growth inhibition of human CCRF-CEM cells at 10 uM relative to control; assay type: functional; conditions: read-out: GI
HL-60(TB) = assay: Growth inhibition of human HL-60(TB) cells at 10 uM relative to control; assay type: functional; conditions: read-out: GI
K562 = assay: Growth inhibition of human K562 cells at 10 uM relative to control; assay type: functional; conditions: read-out: GI
MOLT-4 = assay: Growth inhibition of human MOLT-4 cells at 10 uM relative to control; assay type: functional; conditions: read-out: GI
RPMI-8226 = assay: Growth inhibition of human RPMI-8226 cells at 10 uM relative to control; assay type: functional; conditions: read-out: GI
SR = assay: Growth inhibition of human SR cells at 10 uM relative to control; assay type: functional; conditions: read-out: GI
A549 = assay: Growth inhibition of human A549 cells at 10 uM relative to control; assay type: functional; conditions: read-out: GI
HOP-62 = assay: Growth inhibition of human HOP-62 cells at 10 uM relative to control; assay type: functional; conditions: read-out: GI
HOP-92 = assay: Growth inhibition of human HOP-92 cells at 10 uM relative to control; assay type: functional; conditions: read-out: GI
NCI-H226 = assay: Growth inhibition of human NCI-H226 cells at 10 uM relative to control; assay type: functional; conditions: read-out: GI
NCI-H23 = assay: Growth inhibition of human NCI-H23 cells at 10 uM relative to control; assay type: functional; conditions: read-out: GI
NCI-H322M = assay: Growth inhibition of human NCI-H322M cells at 10 uM relative to control; assay type: functional; conditions: read-out: GI
NCI-H460 = assay: Growth inhibition of human NCI-H460 cells at 10 uM relative to control; assay type: functional; conditions: read-out: GI
NCI-H522 = assay: Growth inhibition of human NCI-H522 cells at 10 uM relative to control; assay type: functional; conditions: read-out: GI
SW-620 = assay: Growth inhibition of human SW-620 cells at 10 uM relative to control; assay type: functional; conditions: read-out: GI
COLO 205 = assay: Growth inhibition of human COLO 205 cells at 10 uM relative to control; assay type: functional; conditions: read-out: GI
HCC 2998 = assay: Growth inhibition of human HCC 2998 cells at 10 uM relative to control; assay type: functional; conditions: read-out: GI
HCT-116 = assay: Growth inhibition of human HCT-116 cells at 10 uM relative to control; assay type: functional; conditions: read-out: GI
HCT-15 = assay: Growth inhibition of human HCT-15 cells at 10 uM relative to control; assay type: functional; conditions: read-out: GI
HT-29 = assay: Growth inhibition of human HT-29 cells at 10 uM relative to control; assay type: functional; conditions: read-out: GI
KM12 = assay: Growth inhibition of human KM12 cells at 10 uM relative to control; assay type: functional; conditions: read-out: GI
SF-268 = assay: Growth inhibition of human SF-268 cells at 10 uM relative to control; assay type: functional; conditions: read-out: GI
SF-295 = assay: Growth inhibition of human SF-295 cells at 10 uM relative to control; assay type: functional; conditions: read-out: GI
SF-539 = assay: Growth inhibition of human SF-539 cells at 10 uM relative to control; assay type: functional; conditions: read-out: GI
SNB-19 = assay: Growth inhibition of human SNB-19 cells at 10 uM relative to control; assay type: functional; conditions: read-out: GI
SNB-75 = assay: Growth inhibition of human SNB-75 cells at 10 uM relative to control; assay type: functional; conditions: read-out: GI
U-251 = assay: Growth inhibition of human U-251 cells at 10 uM relative to control; assay type: functional; conditions: read-out: GI
Malme-3M = assay: Growth inhibition of human Malme-3M cells at 10 uM relative to control; assay type: functional; conditions: read-out: GI
M14 = assay: Growth inhibition of human M14 cells at 10 uM relative to control; assay type: functional; conditions: read-out: GI
MDA-MB-435 = assay: Growth inhibition of human MDA-MB-435 cells at 10 uM relative to control; assay type: functional; conditions: read-out: GI
SK-MEL-2 = assay: Growth inhibition of human SK-MEL-2 cells at 10 uM relative to control; assay type: functional; conditions: read-out: GI
SK-MEL-28 = assay: Growth inhibition of human SK-MEL-28 cells at 10 uM relative to control; assay type: functional; conditions: read-out: GI
SK-MEL-5 = assay: Growth inhibition of human SK-MEL-5 cells at 10 uM relative to control; assay type: functional; conditions: read-out: GI
UACC-257 = assay: Growth inhibition of human UACC-257 cells at 10 uM relative to control; assay type: functional; conditions: read-out: GI
UACC-62 = assay: Growth inhibition of human UACC-62 cells at 10 uM relative to control; assay type: functional; conditions: read-out: GI
IGROV-1 = assay: Growth inhibition of human IGROV-1 cells at 10 uM relative to control; assay type: functional; conditions: read-out: GI
OVCAR-4 = assay: Growth inhibition of human OVCAR-4 cells at 10 uM relative to control; assay type: functional; conditions: read-out: GI
OVCAR-5 = assay: Growth inhibition of human OVCAR-5 cells at 10 uM relative to control; assay type: functional; conditions: read-out: GI
OVCAR-8 = assay: Growth inhibition of human OVCAR-8 cells at 10 uM relative to control; assay type: functional; conditions: read-out: GI
NCI/ADR-RES = assay: Growth inhibition of human NCI/ADR-RES cells at 10 uM relative to control; assay type: functional; conditions: read-out: GI
SK-OV-3 = assay: Growth inhibition of human SK-OV-3 cells at 10 uM relative to control; assay type: functional; conditions: read-out: GI
786-0 = assay: Growth inhibition of human 786-0 cells at 10 uM relative to control; assay type: functional; conditions: read-out: GI
A498 = assay: Growth inhibition of human A498 cells at 10 uM relative to control; assay type: functional; conditions: read-out: GI
ACHN = assay: Growth inhibition of human ACHN cells at 10 uM relative to control; assay type: functional; conditions: read-out: GI
CAKI-1 = assay: Growth inhibition of human CAKI-1 cells at 10 uM relative to control; assay type: functional; conditions: read-out: GI
RXF 393 = assay: Growth inhibition of human RXF 393 cells at 10 uM relative to control; assay type: functional; conditions: read-out: GI
SN12C = assay: Growth inhibition of human SN12C cells at 10 uM relative to control; assay type: functional; conditions: read-out: GI
TK-10 = assay: Growth inhibition of human TK-10 cells at 10 uM relative to control; assay type: functional; conditions: read-out: GI
UO-31 = assay: Growth inhibition of human UO-31 cells at 10 uM relative to control; assay type: functional; conditions: read-out: GI
PC-3 = assay: Growth inhibition of human PC-3 cells at 10 uM relative to control; assay type: functional; conditions: read-out: GI
DU-145 = assay: Growth inhibition of human DU-145 cells at 10 uM relative to control; assay type: functional; conditions: read-out: GI
MCF7 = assay: Growth inhibition of human MCF7 cells at 10 uM relative to control; assay type: functional; conditions: read-out: GI
MDA-MB-231 = assay: Growth inhibition of human MDA-MB-231 cells at 10 uM relative to control; assay type: functional; conditions: read-out: GI
Hs-578T = assay: Growth inhibition of human Hs-578T cells at 10 uM relative to control; assay type: functional; conditions: read-out: GI
BT-549 = assay: Growth inhibition of human BT-549 cells at 10 uM relative to control; assay type: functional; conditions: read-out: GI
DNA = assay: Displacement of methyl green from DNA (unknown origin) assessed as DNA intercalation after 24 hrs by colorimetric assay; assay type: nucleic-acid assay

SMILES: CC1=CN2C(=NC(/C=C/c3ccc(C)cc3)=CC2c2ccc(C)cc2)S1 (centres undefined)
- inhibition of growth at 10 µM (LOX IMVI): < 10%
- inhibition of growth at 10 µM (MDA-MB-468): 11.3%
- inhibition of growth at 10 µM (T47D): < 10%
- inhibition of growth at 10 µM (CCRF-CEM): < 10%
- inhibition of growth at 10 µM (HL-60(TB)): < 10%
- inhibition of growth at 10 µM (K562): < 10%
- inhibition of growth at 10 µM (MOLT-4): 12.6%
- inhibition of growth at 10 µM (RPMI-8226): < 10%
- inhibition of growth at 10 µM (SR): < 10%
- inhibition of growth at 10 µM (A549): < 10%
- inhibition of growth at 10 µM (HOP-62): < 10%
- inhibition of growth at 10 µM (HOP-92): < 10%
- inhibition of growth at 10 µM (NCI-H226): < 10%
- inhibition of growth at 10 µM (NCI-H23): < 10%
- inhibition of growth at 10 µM (NCI-H322M): < 10%
- inhibition of growth at 10 µM (NCI-H460): < 10%
- inhibition of growth at 10 µM (NCI-H522): 10.9%
- inhibition of growth at 10 µM (SW-620): < 10%
- inhibition of growth at 10 µM (COLO 205): < 10%
- inhibition of growth at 10 µM (HCC 2998): < 10%
- inhibition of growth at 10 µM (HCT-116): < 10%
- inhibition of growth at 10 µM (HCT-15): < 10%
- inhibition of growth at 10 µM (HT-29): < 10%
- inhibition of growth at 10 µM (KM12): < 10%
- inhibition of growth at 10 µM (SF-268): < 10%
- inhibition of growth at 10 µM (SF-295): < 10%
- inhibition of growth at 10 µM (SF-539): < 10%
- inhibition of growth at 10 µM (SNB-19): < 10%
- inhibition of growth at 10 µM (SNB-75): 13.7%
- inhibition of growth at 10 µM (U-251): < 10%
- inhibition of growth at 10 µM (Malme-3M): < 10%
- inhibition of growth at 10 µM (M14): < 10%
- inhibition of growth at 10 µM (MDA-MB-435): < 10%
- inhibition of growth at 10 µM (SK-MEL-2): < 10%
- inhibition of growth at 10 µM (SK-MEL-28): < 10%
- inhibition of growth at 10 µM (SK-MEL-5): < 10%
- inhibition of growth at 10 µM (UACC-257): < 10%
- inhibition of growth at 10 µM (UACC-62): < 10%
- inhibition of growth at 10 µM (IGROV-1): < 10%
- inhibition of growth at 10 µM (OVCAR-4): < 10%
- inhibition of growth at 10 µM (OVCAR-5): < 10%
- inhibition of growth at 10 µM (OVCAR-8): < 10%
- inhibition of growth at 10 µM (NCI/ADR-RES): < 10%
- inhibition of growth at 10 µM (SK-OV-3): < 10%
- inhibition of growth at 10 µM (786-0): < 10%
- inhibition of growth at 10 µM (A498): < 10%
- inhibition of growth at 10 µM (ACHN): < 10%
- inhibition of growth at 10 µM (CAKI-1): < 10%
- inhibition of growth at 10 µM (RXF 393): < 10%
- inhibition of growth at 10 µM (SN12C): < 10%
- inhibition of growth at 10 µM (TK-10): < 10%
- inhibition of growth at 10 µM (UO-31): 19.1%
- inhibition of growth at 10 µM (PC-3): < 10%
- inhibition of growth at 10 µM (DU-145): < 10%
- inhibition of growth at 10 µM (MCF7): < 10%
- inhibition of growth at 10 µM (MDA-MB-231): < 10%
- inhibition of growth at 10 µM (Hs-578T): < 10%
- inhibition of growth at 10 µM (BT-549): < 10%
- IC50 (DNA): 87.57 µg/mL (≈ 244 µM)
